Source: patent publication US10772893B2, “2-(morpholin-4-yl)-1,7-naphthyridines” (BAYER PHARMA AKTIENGESELLSCHAFT, priority 2014, dated 2020)
Where two headings read alike, the source gives them in different places.

System: HeLa cells
Test: Proliferation assay, crystal violet staining
Conditions: Homo sapiens, 96 h
[1] = read-out: Inhibition of HeLa cell proliferation, HeLa cells, 4 days incubation

Compound | IC50 [1] | IC50 (read-out: Inhibition of HeLa cell proliferation)
Cc1ccc(-c2cc(N3CCOC[C@H]3C)nc3c(-c4ccn[nH]4)nccc23)s1 [Example 100, 2-[(3R)-3-methylmorpholin-4-yl]-4-(5-methyl-2-thienyl)-8-(1H-pyrazol-5-yl)-1,7-naphthyridine] | 950 nM | 
O=C1CCCN1c1cc(N2CCOCC2)nc2c(-c3ccn[nH]3)nccc12 [Example 215, 1-[2-(morpholin-4-yl)-8-(1H-pyrazol-5-yl)-1,7-naphthyridin-4-yl]pyrrolidin-2-one] | > 3000 nM | 
Fc1ccc(-c2cc(N3CCOCC3)nc3c(-c4ccn[nH]4)nccc23)cc1 [Example 314, 4-(4-fluorophenyl)-2-(morpholin-4-yl)-8-(1H-pyrazol-5-yl)-1,7-naphthyridine] | > 3000 nM | 
C[C@@H]1COCCN1c1cc(-c2cc(F)ccc2N)c2ccnc(-c3ccn[nH]3)c2n1 [Example 75, 4-fluoro-2-[2-[(3R)-3-methylmorpholin-4-yl]-8-(1H-pyrazol-5-yl)-1,7-naphthyridin-4-yl]aniline] | 271 nM | 
Fc1ccccc1-c1cc(N2CCOCC2)nc2c(-c3ccn[nH]3)nccc12 [Example 327, 4-(2-fluorophenyl)-2-(morpholin-4-yl)-8-(1H-pyrazol-5-yl)-1,7-naphthyridine] | 1890 nM | 
C[C@@H]1COCCN1c1cc(C2CCOCC2)c2ccnc(-c3ccn[nH]3)c2n1 [Example 107, 2-[(3R)-3-methylmorpholin-4-yl]-8-(1H-pyrazol-5-yl)-4-(tetrahydro-2H-pyran-4-yl)-1,7-naphthyridine] | 306 nM | 
C[C@@H]1COCCN1c1cc(-c2cnn(C)c2)c2ccnc(-c3ccn[nH]3)c2n1 [Example 248, 2-[(3R)-3-methylmorpholin-4-yl]-4-(1-methyl-1H-pyrazol-4-yl)-8-(1H-pyrazol-5-yl)-1,7-naphthyridine] | 451 nM | 
C/C=C/c1cc(N2CCOCC2)nc2c(-c3ccn[nH]3)nccc12 [Example 325, 2-(morpholin-4-yl)-4-[(1E)-prop-1-en-1-yl]-8-(1H-pyrazol-5-yl)-1,7-naphthyridine] | 999 nM | 
CCn1nccc1-c1cc(N2CCOC[C@H]2C)nc2c(-c3ccn[nH]3)nccc12 [Example 69, 4-(1-ethyl-1H-pyrazol-5-yl)-2-[(3R)-3-methylmorpholin-4-yl]-8-(1H-pyrazol-5-yl)-1,7-naphthyridine] | 191 nM | 
C[C@@H]1COCCN1c1cc(-c2cccc(F)c2F)c2ccnc(-c3ccn[nH]3)c2n1 [Example 72, 4-(2,3-difluorophenyl)-2-[(3R)-3-methylmorpholin-4-yl]-8-(1H-pyrazol-5-yl)-1,7-naphthyridine] | 200 nM | 
c1cc(-c2cc(N3CCOCC3)nc3c(-c4ccn[nH]4)nccc23)c2cc[nH]c2c1 [Example 294, 4-(1H-indol-4-yl)-2-(morpholin-4-yl)-8-(1H-pyrazol-5-yl)-1,7-naphthyridine] | 2450 nM | 
C[C@@H]1COCCN1c1cc(-c2ccn(CC(C)(C)O)n2)c2ccnc(-c3ccn[nH]3)c2n1 [Example 161, 2-methyl-1-(3-{2-[(3R)-3-methylmorpholin-4-yl]-8-(1H-pyrazol-5-yl)-1,7-naphthyridin-4-yl}-1H-pyrazol-1-yl)propan-2-ol] | 588 nM | 
Cc1cc(-c2cc(N3CCOC[C@H]3C)nc3c(-c4ccn[nH]4)nccc23)cnc1F [Example 92, 4-(6-fluoro-5-methylpyridin-3-yl)-2-[(3R)-3-methylmorpholin-4-yl]-8-(1H-pyrazol-5-yl)-1,7-naphthyridine] | 117 nM | 
CCn1cc(-c2cc(N3CCOC[C@H]3C)nc3c(-c4ccn[nH]4)nccc23)cn1 [Example 261, 4-(1-ethyl-1H-pyrazol-4-yl)-2-[(3R)-3-methylmorpholin-4-yl]-8-(1H-pyrazol-5-yl)-1,7-naphthyridine] | 420 nM | 
C[C@@H]1COCCN1c1cc(-c2cnc(F)cc2F)c2ccnc(-c3ccn[nH]3)c2n1 [Example 247, 4-(4,6-difluoropyridin-3-yl)-2-[(3R)-3-methylmorpholin-4-yl]-8-(1H-pyrazol-5-yl)-1,7-naphthyridine] | 228 nM | 
Cc1ccccc1-c1cc(N2CCOCC2)nc2c(-c3ccn[nH]3)nccc12 [Example 318, 4-(2-methylphenyl)-2-(morpholin-4-yl)-8-(1H-pyrazol-5-yl)-1,7-naphthyridine] | 2000 nM | 
CC[S+]([O-])c1cc(N2CCOCC2)nc2c(-c3ccn[nH]3)nccc12 (centres unmarked) [Example 195, 4-ethylsulfinyl-2-(morpholin-4-yl)-8-(1H-pyrazol-5-yl)-1,7-naphthyridine] | 3010 nM | 
C[C@@H]1COCCN1c1cc(N=S(C)(=O)c2ccc(F)cc2)c2ccnc(-c3ccn[nH]3)c2n1 (stereo partly drawn) [Example 138, 4-{[(4-fluorophenyl)(methyl)oxido-λ^6-sulfanylidene]amino}-2-[(3R)-3-methylmorpholin-4-yl]-8-(1H-pyrazol-5-yl)-1,7-naphthyridine] | 619 nM | 
COCc1noc(C)c1-c1cc(N2CCOC[C@H]2C)nc2c(-c3ccn[nH]3)nccc12 [Example 135, 4-[3-(methoxymethyl)-5-methyl-1,2-oxazol-4-yl]-2-[(3R)-3-methylmorpholin-4-yl]-8-(1H-pyrazol-5-yl)-1,7-naphthyridine] | 1820 nM | 
CCP(=O)(CC)c1cc(N2CCOC[C@H]2C)nc2c(-c3ccn[nH]3)nccc12 [Example 143, 4-(diethylphosphoryl)-2-[(3R)-3-methylmorpholin-4-yl]-8-(1H-pyrazol-5-yl)-1,7-naphthyridine] | 543 nM | 
COP(=O)(OC)c1ccc(-c2cc(N3CCOCC3)nc3c(-c4ccn[nH]4)nccc23)cc1 [Example 9, dimethyl {4-[2-(morpholin-4-yl)-8-(1H-pyrazol-5-yl)-1,7-naphthyridin-4-yl]phenyl}phosphonate] |  | 1010 nM
FC(F)(F)c1ccccc1-c1cc(N2CCOCC2)nc2c(-c3ccn[nH]3)nccc12 [Example 301, 2-(morpholin-4-yl)-8-(1H-pyrazol-5-yl)-4-[2-(trifluoromethyl)phenyl]-1,7-naphthyridine] | 2820 nM | 
C[C@@H]1COCCN1c1cc(-c2cccnc2N)c2ccnc(-c3ccn[nH]3)c2n1 [Example 155, 3-{2-[(3R)-3-methylmorpholin-4-yl]-8-(1H-pyrazol-5-yl)-1,7-naphthyridin-4-yl}pyridin-2-amine] | 959 nM | 
C[C@@H]1COCCN1c1cc(C2=CCN(C)CC2)c2ccnc(-c3ccn[nH]3)c2n1 [Example 243, 2-[(3R)-3-methylmorpholin-4-yl]-4-(1-methyl-1,2,3,6-tetrahydropyridin-4-yl)-8-(1H-pyrazol-5-yl)-1,7-naphthyridine] | 360 nM | 
Cc1noc(C)c1-c1cc(N2CCOC[C@H]2C)nc2c(-c3ccn[nH]3)nccc12 [Example 105, 4-(3,5-dimethyl-1,2-oxazol-4-yl)-2-[(3R)-3-methylmorpholin-4-yl]-8-(1H-pyrazol-5-yl)-1,7-naphthyridine] | 1000 nM | 
COCCS(C)(=O)=Nc1cc(N2CCOC[C@H]2C)nc2c(-c3ccn[nH]3)nccc12 (stereo partly drawn) [Example 274, 4-{[(2-methoxyethyl)(methyl)oxido-λ^6-sulfanylidene]amino}-2-[(3R)-3-methylmorpholin-4-yl]-8-(1H-pyrazol-5-yl)-1,7-naphthyridine] | 610 nM | 

Further lines, with some results ahead:

IC50 [1] | Compound | IC50 (read-out: Inhibition of HeLa cell proliferation)
156 nM | CC(C)n1nccc1-c1cc(N2CCOC[C@H]2C)nc2c(-c3ccn[nH]3)nccc12 [Example 124, 4-(1-isopropyl-1H-pyrazol-5-yl)-2-[(3R)-3-methylmorpholin-4-yl]-8-(1H-pyrazol-5-yl)-1,7-naphthyridine] | 
3880 nM | CCOc1cc(N2CCOCC2)nc2c(-c3cc[nH]n3)nccc12 [Example 43, 4-ethoxy-2-(morpholin-4-yl)-8-(1H-pyrazol-3-yl)-[1,7]naphthyridine] | 
415 nM | CC(C)Cn1cc(-c2cc(N3CCOC[C@H]3C)nc3c(-c4ccn[nH]4)nccc23)cn1 [Example 268, 2-[(3R)-3-methylmorpholin-4-yl]-4-[1-(2-methylpropyl)-1H-pyrazol-4-yl]-8-(1H-pyrazol-5-yl)-1,7-naphthyridine] | 
> 3000 nM | Cc1ccc(C)c(-c2cc(N3CCOCC3)nc3c(-c4ccn[nH]4)nccc23)c1 [Example 334, 4-(2,5-dimethylphenyl)-2-(morpholin-4-yl)-8-(1H-pyrazol-5-yl)-1,7-naphthyridine] | 
99.5 nM | Cc1cc(-c2cc(N3CCOC[C@H]3C)nc3c(-c4ccn[nH]4)nccc23)on1 [Example 112, 2-[(3R)-3-methylmorpholin-4-yl]-4-(3-methyl-1,2-oxazol-5-yl)-8-(1H-pyrazol-5-yl)-1,7-naphthyridine] | 
648 nM | Cc1c(-c2cc(N3CCOCC3)nc3c(-c4ccn[nH]4)nccc23)cnn1C [Example 272, 4-(1,5-dimethyl-1H-pyrazol-4-yl)-2-(morpholin-4-yl)-8-(1H-pyrazol-5-yl)-1,7-naphthyridine] | 
1010 nM | C[C@@H]1COCCN1c1cc(C2(O)CCCCC2)c2ccnc(-c3ccn[nH]3)c2n1 [Example 189, 1-{2-[(3R)-3-methylmorpholin-4-yl]-8-(1H-pyrazol-5-yl)-1,7-naphthyridin-4-yl}cyclohexanol] | 
706 nM | C[C@@H]1COCCN1c1cc(-c2ccccc2N(C)C)c2ccnc(-c3ccn[nH]3)c2n1 [Example 122, N,N-dimethyl-2-{2-[(3R)-3-methylmorpholin-4-yl]-8-(1H-pyrazol-5-yl)-1,7-naphthyridin-4-yl}aniline] | 
> 3000 nM | Clc1ccc(-c2cc(N3CCOCC3)nc3c(-c4ccn[nH]4)nccc23)s1 [Example 299, 4-(5-chlorothiophen-2-yl)-2-(morpholin-4-yl)-8-(1H-pyrazol-5-yl)-1,7-naphthyridine] | 
> 3000 nM | CN(C)c1ccccc1-c1cc(N2CCOCC2)nc2c(-c3ccn[nH]3)nccc12 [Example 321, N,N-dimethyl-2-[2-(morpholin-4-yl)-8-(1H-pyrazol-5-yl)-1,7-naphthyridin-4-yl]aniline] | 
167 nM | C[C@@H]1COCCN1c1cc(-c2ccccc2N)c2ccnc(-c3ccn[nH]3)c2n1 [Example 71, 2-{2-[(3R)-3-methylmorpholin-4-yl]-8-(1H-pyrazol-5-yl)-1,7-naphthyridin-4-yl]aniline] | 
> 3000 nM | O=S(=O)(c1ccccc1)c1cc(N2CCOCC2)nc2c(-c3ccn[nH]3)nccc12 [Example 198, 2-(morpholin-4-yl)-4-(phenylsulfonyl)-8-(1H-pyrazol-5-yl)-1,7-naphthyridine] | 
